# Species: Rattus norvegicus
# Assay: DrugMatrix - Regimen: Daily Repeat
# Type: toxicity, organism-based, Sprague-Dawley
# Set-up: regimen Daily Repeat, gender Male, age 6-8 weeks
# Conditions: in vivo, po, 3 mg/kg, route oral GAVAGE, dose level Low, vehicle .5 % CMC; for ABSOLUTE BASOPHIL / ABSOLUTE EOSINOPHIL / ABSOLUTE LYMPHOCYTE / ABSOLUTE MONOCYTE / ABSOLUTE SEGMENTED NEUTROPHIL / BASOPHIL / EOSINOPHIL / ERYTHROCYTE COUNT / HEMATOCRIT / HEMOGLOBIN / LEUKOCYTE COUNT / LYMPHOCYTE / MEAN CORPUSCULAR HEMOGLOBIN / MEAN CORPUSCULAR HEMOGLOBIN CONCENTRATION / MEAN CORPUSCULAR VOLUME / MONOCYTE / NEUTROPHIL / NUCLEATED RED BLOOD CELLS / PLATELET COUNT: tissue Blood; for ALANINE AMINOTRANSFERASE / ALBUMIN / ALKALINE PHOSPHATASE / ASPARTATE AMINOTRANSFERASE / BLOOD UREA NITROGEN / CARBON DIOXIDE / CHLORIDE / CHOLESTEROL / CREATINE PHOSPHOKINASE / CREATININE / GLUCOSE / LACTATE DEHYDROGENASE / LIPASE / PHOSPHORUS / POTASSIUM / SODIUM / TOTAL BILIRUBIN / TOTAL PROTEIN / URIC ACID: tissue Plasma
smiles,measurement,setting,value
C=CC[C@@H]1/C=C(\C)C[C@H](C)C[C@H](OC)[C@H]2O[C@@](O)(C(=O)C(=O)N3CCCC[C@H]3C(=O)O[C@H](/C(C)=C/[C@@H]3CC[C@@H](O)[C@H](OC)C3)[C@H](C)[C@@H](O)CC1=O)[C@H](C)C[C@@H]2OC [TACROLIMUS ANHYDROUS],ABSOLUTE BASOPHIL,"72 h, time 3 day",0 CELLS/uL
same,ABSOLUTE EOSINOPHIL,"72 h, time 3 day",115.33 CELLS/uL
same,ABSOLUTE LYMPHOCYTE,"72 h, time 3 day",12942.67 CELLS/uL
same,ABSOLUTE MONOCYTE,"72 h, time 3 day",191 CELLS/uL
same,ABSOLUTE SEGMENTED NEUTROPHIL,"72 h, time 3 day",1684.33 CELLS/uL
same,BASOPHIL,"72 h, time 3 day",0%
same,EOSINOPHIL,"72 h, time 3 day",0.67%
same,ERYTHROCYTE COUNT,"72 h, time 3 day",5.73 x10E6/uL
same,HEMATOCRIT,"72 h, time 3 day",36.53%
same,HEMOGLOBIN,"72 h, time 3 day",13.97 G/DL
same,LEUKOCYTE COUNT,"72 h, time 3 day",14.93 x10E3/uL
same,LYMPHOCYTE,"72 h, time 3 day",86.67%
same,MEAN CORPUSCULAR HEMOGLOBIN,"72 h, time 3 day",24.37 pg
same,MEAN CORPUSCULAR HEMOGLOBIN CONCENTRATION,"72 h, time 3 day",38.27 G/DL
same,MEAN CORPUSCULAR VOLUME,"72 h, time 3 day",63.77 fL
same,MONOCYTE,"72 h, time 3 day",1.33%
same,NEUTROPHIL,"72 h, time 3 day",11.33%
same,NUCLEATED RED BLOOD CELLS,"72 h, time 3 day",0 /100WBC
same,PLATELET COUNT,"72 h, time 3 day",1252.33 x10E3/uL
same,ALANINE AMINOTRANSFERASE,"72 h, time 3 day",50.67 u/L
same,ALBUMIN,"72 h, time 3 day",4.1 G/DL
same,ALKALINE PHOSPHATASE,"72 h, time 3 day",348.33 u/L
same,ASPARTATE AMINOTRANSFERASE,"72 h, time 3 day",75.67 u/L
same,BLOOD UREA NITROGEN,"72 h, time 3 day",16.33 mg/dL
same,CARBON DIOXIDE,"72 h, time 3 day",31.67 mmol/L
same,CHLORIDE,"72 h, time 3 day",99.33 MEQ/L
same,CHOLESTEROL,"72 h, time 3 day",79 mg/dL
same,CREATINE PHOSPHOKINASE,"72 h, time 3 day",194.33 u/L
same,CREATININE,"72 h, time 3 day",0.26 mg/dL
same,GLUCOSE,"72 h, time 3 day",149.33 mg/dL
same,LACTATE DEHYDROGENASE,"72 h, time 3 day",133.33 u/L
same,LIPASE,"72 h, time 3 day",9.33 u/L
same,PHOSPHORUS,"72 h, time 3 day",12.63 mg/dL
same,POTASSIUM,"72 h, time 3 day",6.77 MEQ/L
same,SODIUM,"72 h, time 3 day",144.97 MEQ/L
same,TOTAL BILIRUBIN,"72 h, time 3 day",0.2 mg/dL
same,TOTAL PROTEIN,"72 h, time 3 day",5.83 G/DL
same,URIC ACID,"72 h, time 3 day",1.67 mg/dL
same,ABSOLUTE BASOPHIL,"120 h, time 5 day",0 CELLS/uL
same,ABSOLUTE EOSINOPHIL,"120 h, time 5 day",0 CELLS/uL
same,ABSOLUTE LYMPHOCYTE,"120 h, time 5 day",15415.33 CELLS/uL
same,ABSOLUTE MONOCYTE,"120 h, time 5 day",188 CELLS/uL
same,ABSOLUTE SEGMENTED NEUTROPHIL,"120 h, time 5 day",1663.33 CELLS/uL
same,BASOPHIL,"120 h, time 5 day",0%
same,EOSINOPHIL,"120 h, time 5 day",0%
same,ERYTHROCYTE COUNT,"120 h, time 5 day",5.95 x10E6/uL
same,HEMATOCRIT,"120 h, time 5 day",36.57%
same,HEMOGLOBIN,"120 h, time 5 day",14.1 G/DL
same,LEUKOCYTE COUNT,"120 h, time 5 day",17.27 x10E3/uL
same,LYMPHOCYTE,"120 h, time 5 day",89.33%
same,MEAN CORPUSCULAR HEMOGLOBIN,"120 h, time 5 day",23.77 pg
same,MEAN CORPUSCULAR HEMOGLOBIN CONCENTRATION,"120 h, time 5 day",38.57 G/DL
same,MEAN CORPUSCULAR VOLUME,"120 h, time 5 day",61.53 fL
same,MONOCYTE,"120 h, time 5 day",1%
same,NEUTROPHIL,"120 h, time 5 day",9.67%
same,NUCLEATED RED BLOOD CELLS,"120 h, time 5 day",0 /100WBC
same,PLATELET COUNT,"120 h, time 5 day",1336 x10E3/uL
same,ALANINE AMINOTRANSFERASE,"120 h, time 5 day",51.33 u/L
same,ALBUMIN,"120 h, time 5 day",4.23 G/DL
same,ALKALINE PHOSPHATASE,"120 h, time 5 day",303 u/L
same,ASPARTATE AMINOTRANSFERASE,"120 h, time 5 day",80 u/L
same,BLOOD UREA NITROGEN,"120 h, time 5 day",17 mg/dL
same,CARBON DIOXIDE,"120 h, time 5 day",27.67 mmol/L
same,CHLORIDE,"120 h, time 5 day",101.67 MEQ/L
same,CHOLESTEROL,"120 h, time 5 day",81 mg/dL
same,CREATINE PHOSPHOKINASE,"120 h, time 5 day",231 u/L
same,CREATININE,"120 h, time 5 day",0.2 mg/dL
same,GLUCOSE,"120 h, time 5 day",164 mg/dL
same,LACTATE DEHYDROGENASE,"120 h, time 5 day",171.67 u/L
same,LIPASE,"120 h, time 5 day",9.33 u/L
same,PHOSPHORUS,"120 h, time 5 day",13.2 mg/dL
same,POTASSIUM,"120 h, time 5 day",6.36 MEQ/L
same,SODIUM,"120 h, time 5 day",144.37 MEQ/L
same,TOTAL BILIRUBIN,"120 h, time 5 day",0.2 mg/dL
same,TOTAL PROTEIN,"120 h, time 5 day",6.13 G/DL
same,URIC ACID,"120 h, time 5 day",1.73 mg/dL
